From ChEMBL document CHEMBL5661943, “ASAP - In vitro antiviral effect” (2024)
Values joined by “and” are separate entries in the source; they are usually repeats but may differ in a detail not shown here. Equal entries are not always repeated.

Key:
Zika virus [1] = test: (§1) Functional CPE-based assay to measure dose dependent changes in antiviral-drug inhibitory efficacy against Zika virus MR766 in Vero E6 miRFP670 cells. Cells are treated with antiviral candidates that are serially diluted. EC50 is reported via analysis of MTS assay as a readout of CPE. The assay has been performed by KU Leuven.; type: organism-based, Chlorocebus sabaeus, Vero C1008; conditions: Zika virus; for EC50: Vero C1008
dengue virus type 2 [2] = test: Functional immunofluorescence assay to measure dose dependent changes in antiviral-drug inhibitory efficacy against Dengue virus type 2 Thailand/16681/84 in Vero E6/TMPRSS2 cells (cotreated with P-gp inhibitor, Elacridar). Cells are treated with antiviral candidates that are serially diluted, following infection, cells are fixed. EC50 is reported via analysis of immunofluorescence staining. The assay has been performed by Icahn School of Medicine at Mount Sinai.; type: organism-based, Chlorocebus sabaeus, VeroE6/TMPRSS2; conditions: Dengue virus; for EC90: P-gp concentration 2 uM, P-gp inhibitor Elacidar
Zika virus [3] = test: as §1, with “cells (cotreated with P-gp inhibitor, CP100356).” for “cells.”; type: organism-based, Chlorocebus sabaeus, Vero C1008; conditions: for EC90: P-gp concentration 500 nM, P-gp inhibitor CP100356
Zika virus [4] = test: EC50 is reported via analysis of immunofluorescence staining. The assay has been performed by Icahn School of Medicine at Mount Sinai.; type: functional, organism-based, Chlorocebus sabaeus, VeroE6/TMPRSS2
dengue virus type 2 [5] = test: Functional assay to measure dose dependent changes in antiviral-drug inhibitory efficacy against Dengue virus type 2 New Guinea C in Vero E6 miRFP670 cells (cotreated with P-gp inhibitor, CP100356). Cells are treated with antiviral candidates that are serially diluted, following infection, cells are fixed. EC50 is reported via analysis of fluorescence intensity using high-content imager. The …; type: organism-based, Chlorocebus sabaeus, Vero C1008; conditions: for EC90: P-gp concentration 500 nM, P-gp inhibitor CP100356

O=C(Nc1cc(Cl)cc(-c2cccc3c(C(=O)O)cccc23)c1)OCc1ccccc1
EC50 (Zika virus [1]): > 50 µM
EC90 (Zika virus [1]; Vero C1008, Maximum measured -0.778 %, Minimum measured -5.402 %): > 50 µM

N#C[C@H](Nc1cncc(-c2nn[nH]n2)c1)c1cc(Cl)cc(NC(=O)OCc2ccccc2)c1
EC50 (Zika virus [1]): > 50 µM
EC90 (Zika virus [1]; Vero C1008, Baseline response 0 %, Hill slope -0.546, Maximum measured 2.599 %, Maximum response 100 %, Minimum measured -1.254 %, R squared 0.412): > 50 µM

O=C(Nc1ccc2c(c1)CNCC2)c1cc(Cl)cc2[nH]ncc12
EC50 (Zika virus [1]): > 50 µM
EC90 (Zika virus [1]; Vero C1008, Maximum measured 0.588 %, Minimum measured -2.808 %): > 50 µM

COc1cc(-c2cc(Cl)cc(NC(=O)OCc3ccccc3)c2)c(OC)cc1CC(=O)O
EC50 (Zika virus [1]): > 50 µM
EC90 (Zika virus [1]; Vero C1008, Baseline response 0 %, Hill slope 0.25, Maximum measured 21.22 %, Maximum response 100 %, Minimum measured 1.079 %, R squared 0.113): > 50 µM

CN1Cc2ccc(NC(=O)c3cc(Cl)cc4[nH]ncc34)cc2C1
EC50 (Zika virus [1]): > 50 µM
EC90 (Zika virus [1]; Vero C1008, Baseline response 0 %, Hill slope -0.359, Maximum measured 1.713 %, Maximum response 100 %, Minimum measured -2.397 %, R squared 0.026): > 50 µM

CC(C)c1cc(Br)cc(C(=O)Nc2ccc3c(c2)CNC3)c1
EC50 (Zika virus [1]): > 50 µM
EC90 (Zika virus [1]; Vero C1008, Baseline response 0 %, Hill slope -0.823, Maximum measured 6.311 %, Maximum response 100 %, Minimum measured -3.726 %, R squared 0.279): > 50 µM

Cn1cc(CNC(=O)[C@H](Nc2ccc3c(c2)CNC3)c2cc(Cl)cc(C3CC3)c2)cn1
EC50 (dengue virus type 2 [2]; VeroE6/TMPRSS2): > 50 µM
EC90 (dengue virus type 2 [2]; VeroE6/TMPRSS2, Maximum measured 219.34 %, Minimum measured 69.596 %): > 50 µM
EC50 (Zika virus [3]; Zika virus, Vero C1008): > 50 µM
EC90 (Zika virus [3]; Zika virus, Vero C1008, Maximum measured -1.973 %, Minimum measured -8.89 %): > 50 µM
EC90 (Zika virus [4]; Zika virus, VeroE6/TMPRSS2, Maximum measured 136.439 %, Minimum measured 82.812 %, P-gp concentration 2 uM, P-gp inhibitor Elacidar): > 5.56 µM
EC90 (Zika virus [4]; Zika virus, VeroE6/TMPRSS2, Maximum measured 172.39 %, Minimum measured 65.114 %, P-gp concentration 2 uM, P-gp inhibitor Elacidar): > 50 µM
EC50 (Zika virus [4]; veroe6/tmprss2): > 50 µM
EC50 (dengue virus type 2 [5]; Dengue virus, Vero C1008): > 50 µM
EC90 (dengue virus type 2 [5]; Dengue virus, Vero C1008, Maximum measured 110.921 %, Minimum measured 103.415 %): > 50 µM

O=C(Nc1ccc2c(c1)CNC2)c1cc(Br)cc2[nH]ncc12
EC50 (dengue virus type 2 [2]; VeroE6/TMPRSS2): > 50 µM
EC90 (dengue virus type 2 [2]; VeroE6/TMPRSS2, Maximum measured 186.968 %, Minimum measured 93.389 %): > 50 µM
EC50 (Zika virus [3]; Zika virus, Vero C1008): > 50 µM
EC90 (Zika virus [3]; Zika virus, Vero C1008, Baseline response 0 %, Hill slope 1.733, Maximum measured 40.291 %, Maximum response 100 %, Minimum measured -1.647 %, R squared 0.923): > 50 µM
EC90 (Zika virus [4]; Baseline response 0 %, EC90 CI (lower) 1.042 uM, EC90 CI (upper) 22.584 uM, Hill slope -2.906, Maximum measured 100.475 %, Maximum response 60 %, Minimum measured 3.913 %, P-gp concentration 2 uM, R squared 0.559, P-gp inhibitor Elacidar): 22 µM
EC90 (Zika virus [4]; Baseline response 0 %, Hill slope -0.436, Maximum measured 89.533 %, Maximum response 80 %, Minimum measured 16.256 %, P-gp concentration 2 uM, R squared 0.57, P-gp inhibitor Elacidar): > 50 µM
EC50 (Zika virus [4]; veroe6/tmprss2): 3.73 µM and 10.3 µM
EC50 (dengue virus type 2 [5]; Dengue virus, Vero C1008): > 50 µM
EC90 (dengue virus type 2 [5]; Dengue virus, Vero C1008, Baseline response 0 %, Hill slope -0.471, Maximum measured 107.19 %, Maximum response 100 %, Minimum measured 78.588 %, R squared 0.089): > 50 µM

Cc1c(C(=O)Nc2cc(-c3cccnc3)ccn2)cc(C2CC2)n1C
EC50 (dengue virus type 2 [2]; VeroE6/TMPRSS2): 46 µM
EC90 (dengue virus type 2 [2]; VeroE6/TMPRSS2, Baseline response 0 %, Hill slope -10.528, Maximum measured 161.281 %, Maximum response 100 %, Minimum measured 29.52 %, R squared 0.091): > 50 µM
EC90 (Zika virus [3]; Baseline response 0 %, Hill slope 10.672, Maximum measured 18.054 %, Maximum response 100 %, Minimum measured -2.868 %, R squared 0.771): > 50 µM
EC50 (Zika virus [3]; Zika virus, Vero C1008): > 50 µM
EC90 (Zika virus [3]; Zika virus, Vero C1008, Baseline response 0 %, Hill slope 1.591, Maximum measured 7.654 %, Maximum response 100 %, Minimum measured -2.289 %, R squared 0.158): > 50 µM
EC50 (Zika virus [4]; Zika virus, VeroE6/TMPRSS2): 14.5 µM
EC90 (Zika virus [4]; Zika virus, VeroE6/TMPRSS2): 32.7 µM
EC90 (dengue virus type 2 [5]; Baseline response 0 %, Hill slope 0.498, Maximum measured 89.901 %, Maximum response 100 %, Minimum measured 65.385 %, R squared 0.493): > 6.25 µM
EC90 (dengue virus type 2 [5]; Baseline response 0 %, Hill slope 0.771, Maximum measured 124.592 %, Maximum response 100 %, Minimum measured 47.777 %, R squared 0.6): < 0.391 µM
EC50 (dengue virus type 2 [5]; vero c1008): 0.83 µM and > 6.25 µM

O=C(NC1CCOCC1)[C@H](Nc1ccc2c(c1)CNC2)c1cc(Cl)cc(C2CC2)c1
EC50 (dengue virus type 2 [2]; VeroE6/TMPRSS2): > 5.56 µM
EC90 (dengue virus type 2 [2]; VeroE6/TMPRSS2, Maximum measured 137.73 %, Minimum measured 84.756 %): > 5.56 µM
EC50 (Zika virus [3]; Zika virus, Vero C1008): 3.19 µM
EC90 (Zika virus [3]; Zika virus, Vero C1008, Baseline response 0 %, EC90 CI (lower) 0.059 uM, EC90 CI (upper) 333.672 uM, Hill slope 6.678, Maximum measured 170.178 %, Maximum response 100 %, Minimum measured 3.055 %, R squared 0.499): 4.44 µM
EC90 (Zika virus [4]; Baseline response 0 %, Hill slope -0.296, Maximum measured 102.901 %, Maximum response 100 %, Minimum measured 72.878 %, P-gp concentration 2 uM, R squared 0.169, P-gp inhibitor Elacidar): > 16.7 µM
EC90 (Zika virus [4]; Baseline response 0 %, Hill slope -0.385, Maximum measured 147.213 %, Maximum response 4776.39 %, Minimum measured 30.718 %, P-gp concentration 2 uM, R squared 0.741, P-gp inhibitor Elacidar): < 0.023 µM
EC50 (dengue virus type 2 [5]; Dengue virus, Vero C1008): 36 µM
EC90 (dengue virus type 2 [5]; Dengue virus, Vero C1008, Baseline response 0 %, Hill slope -0.982, Maximum measured 114.445 %, Maximum response 100 %, Minimum measured 34.266 %, R squared 0.594): > 50 µM
